Molecules are shown by their SMILES. pIC50: −log10 of the molar value. ≈ marks a conversion by molar mass, not a printed value.

The target in data set [1] is USP1 (Recombinant Human His6-USP1/His6-UAF1 Complex Protein) (Homo sapiens (Human), UniProt O94782). The experiment in a line: In vitro activity assay for USP1 (Ub-CHOP2-Reporter deubiquitination assay). It is filed as biochemical. The settings on record: 0.5 h incubation at room temperature, read-out: In vitro inhibitory activity of USP1 IC50. Put shortly:
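His6-USP1/His6-UAF1 complex was mixed with compound in 20 mM Tris-HCl pH 8.0, 2 mM CaCl2, 2 mM β-mercaptoethanol and 0.05% CHAPS. Ub-CHOP2 reporter system plus substrate was added, then incubated 0.5 h at room temperature. IC50 came from a four-parameter logistic fit.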

A short description of data set [2]: Metabolic stability in vitro in rat hepatocytes. It is filed as in vitro ADME. Conditions: read-out: Intrinsic clearance. As to the method:
The concentration of each compound in the reaction system was measured by LC/MS/MS to calculate the intrinsic clearance of the compounds to be tested, and evaluate the metabolic stability in vitro in rat hepatocytes.
To the incubation plate, 198 μL of 0.5×10^6 cells/mL rat hepatocyte mixture and 2.0 μL of 100 μM compound to be tested or positive control were added to initiate reaction. Incubation was performed at 900 rpm at 37° C. […] Then the mixture was vortex-mixed for 5 min. […] Then 100 μL of supernatant of each compound was transferred to a 96-well sample plate, and 100 μL of purified water was added to dilute the sample. The resulting samples were quantified by ion chromatograms. The residual rate was calculated from peak areas of the compounds to be tested or the positive control. The slope k was determined using Microsoft Excel by linear regression of natural logarithm of the residual rate to the incubation time. The intrinsic clearance (in vitro CLint, μL/min/10^6 cells) was calculated from the slope value according to the following equation: […]

Data set [3] in a line: Metabolic stability in vitro in human hepatocytes. The format is in vitro ADME. The settings on record: read-out: Intrinsic clearance. How it is done:
The concentration of each compound in the reaction system was measured by LC/MS/MS to calculate the intrinsic clearance of the compounds to be tested, and evaluate the metabolic stability in vitro in human hepatocytes.
To the incubation plate, 198 μL of 0.5×10^6 cells/mL human hepatocyte mixture and 2.0 μL of 100 μM compound to be tested or positive control were added to initiate reaction. Incubation was performed at 900 rpm at 37° C. […] Then the mixture was vortex-mixed for 5 min. […] Then 100 μL of supernatant of each compound was transferred to a 96-well sample plate, and 100 μL of purified water was added to dilute the sample.
The resulting samples were quantified by ion chromatograms. The residual rate was calculated from peak areas of the compounds to be tested or the positive control. The slope k was determined using Microsoft Excel by linear regression of natural logarithm of the residual rate to the incubation time. The intrinsic clearance (in vitro CLint, μL/min/10^6 cells) was calculated from the slope value according to the following equation: […]

A short description of data set [4]: Solubility (PBS pH 7.4) of compounds from DMSO solution. The format is physicochemical. The settings on record: aqueous buffer, kinetic from dmso stock, 10 mM DMSO solution into PBS pH 7.4, 25° C., read-out: Calculated solubility. As to the method: The solubility (PBS pH 7.4) of a compound to be tested was determined by LC/MS/MS. 6 μL of 10 mM DMSO solution of the compound to be tested was mixed with 194 μL of DMSO to prepare 300 μM compound solution. In 490 μL of water and acetonitrile (1:1) containing an internal standard, 5 μL of the solution and 5 μL of PBS pH 7.4 solution were mixed to prepare 3 μM standard concentration solution of the sample to be tested. The dilution factor of the standard solution can be adjusted according to the strength of response signals in LC/MS.
To 485 μL of PBS pH 7.4 solution, 15 μL of 10 mM DMSO solution of the compound to be tested was added. […] After shaking, the stir bar was removed, and the sample was transferred to a filter plate and filtered using a vacuum manifold. In 490 μL of water and acetonitrile (1:1) containing an internal standard, 5 μL of filtrate and 5 μL of PBS pH 7.4 solution were mixed to prepare a solution to be tested. The dilution factor can be adjusted according to the solubility value and the strength of response signals in LC/MS.
The resulting samples were determined by LC/MS/MS. The sample solubility was calculated from peak areas of the solution of the compound to be tested and the standard concentration solution, according to the following equation:
[formula] • [Sample] is the solubility of the sample to be tested; • Area ratiosample is the ratio of the peak area of sample in the sample to be tested to the peak area of the internal standard; • INJ VOL STD is the injection volume of the standard concentration solution; • DFsample is the dilution factor of the solution of the sample to be tested; • [STD] is the concentration of the standard concentration solution; • INJ VOLsample is the injection volume of the solution of the sample to be tested; and • Area ratio STD is the ratio of the peak area of sample in the standard concentration solution to the peak area of the internal standard.

The next data set has as its target PXR (Homo sapiens (Human), UniProt O75469). The data set is described as follows: Potential for PXR activation in DPX2 cells. It is filed as cell-based. The settings on record: 10 μM, versus 20 μM rifampicin. As to the method: DMSO solutions of the compounds to be tested and the control compound rifampicin solution were prepared, and diluted with Puracyp dosing medium (Puracyp, Cat. No: D-500-100) at 37° C. to respective test concentrations. The final concentrations of the compounds to be tested were 30 μM, 10 μM, and 1 μM, respectively, and the final concentration of rifampicin was 20 μM. The final concentration of DMSO in the test solution was 0.1%. In addition, 0.1% DMSO solution prepared with Puracyp dosing medium was used as a control.
DPX2 cells were suspended in Puracyp Culture medium (Puracyp, Cat No.: C-500-100) at a cell density of 4.5×10^5 cell/mL. Then, the suspension was placed on a 96-well culture plate at 100 μL/well for incubation at 37° C. for 24 h. The medium in appropriate wells of the 96-well culture plate was replaced (three times per well) by 100 μL of solution of the compounds to be tested and a control compound solution. After replacement, the plate was incubated at 37° C. for 24 h. The medium was then replaced (three times per well) by a newly prepared test solution of the compounds to be tested and a rifampicin test solution, and the plate was incubated at 37° C. for 24 h.
The medium in the 96-well culture plate was pipetted and washed twice with PBS. To each well, 50 μL of reagent diluted as required by CellTiter-Fluor™ Cell Viability Assay Kit (Promega, Cat. No.: G6082) was added, and incubated at 37° C. for 0.5 h. The 96-well plate was cooled to room temperature, and the fluorescence value of each well at 505 nm was measured in a fluorescence mode with a microplate reader at an excitation wavelength of 400 nm. Then, 50 μL of reagent prepared as required by One-Glo Luciferase Assay System (Promega, Cat. No.: E6120) was added to each well, and the mixture was incubated at room temperature for 5 min. The luminescence value of each well was read by using a lumen meter.
Normalized luciferase activity was determined by RLU/RFU, and the RLU and RFU of the samples were mean values of duplicate wells, respectively.
[formula] • Fold of activation: fold of activation of normalized luciferase; • RLUtest: measured luminescence value of test wells at each test dose of test compounds; • RLUvehicle: measured luminescence value of test wells when tested with the control DMSO solution; • RFUtest: measured fluorescence value of test wells at each test dose of test compounds; • RFUvehicle: measured fluorescence value of test wells when tested with the control DMSO solution.
The percentage of positive control was calculated as follows:
% Positive control=(fold activationtest compound−1)/(fold activationpositive control compound−1)×100% • % Positive control: percentage of PXR activation compared with 20 μM rifampicin activation at each test dose of test compounds; • Fold activationtest compound: fold of activation of normalized luciferase at each test dose of test compounds; • Fold activationpositive control compound: fold of activation of normalized luciferase of test compounds under 20 μM rifampicin.
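For GI50 in this document: MDA-MB-436 proliferation over 7 days with compound, viability read as ATP luminescence (CellTiter-Glo), inhibition relative to DMSO-only wells, day 0 signal as background, GI50 from four-parameter fit.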

Sequence of USP1 (Recombinant Human His6-USP1/His6-UAF1 Complex Protein) (O94782 whole entry): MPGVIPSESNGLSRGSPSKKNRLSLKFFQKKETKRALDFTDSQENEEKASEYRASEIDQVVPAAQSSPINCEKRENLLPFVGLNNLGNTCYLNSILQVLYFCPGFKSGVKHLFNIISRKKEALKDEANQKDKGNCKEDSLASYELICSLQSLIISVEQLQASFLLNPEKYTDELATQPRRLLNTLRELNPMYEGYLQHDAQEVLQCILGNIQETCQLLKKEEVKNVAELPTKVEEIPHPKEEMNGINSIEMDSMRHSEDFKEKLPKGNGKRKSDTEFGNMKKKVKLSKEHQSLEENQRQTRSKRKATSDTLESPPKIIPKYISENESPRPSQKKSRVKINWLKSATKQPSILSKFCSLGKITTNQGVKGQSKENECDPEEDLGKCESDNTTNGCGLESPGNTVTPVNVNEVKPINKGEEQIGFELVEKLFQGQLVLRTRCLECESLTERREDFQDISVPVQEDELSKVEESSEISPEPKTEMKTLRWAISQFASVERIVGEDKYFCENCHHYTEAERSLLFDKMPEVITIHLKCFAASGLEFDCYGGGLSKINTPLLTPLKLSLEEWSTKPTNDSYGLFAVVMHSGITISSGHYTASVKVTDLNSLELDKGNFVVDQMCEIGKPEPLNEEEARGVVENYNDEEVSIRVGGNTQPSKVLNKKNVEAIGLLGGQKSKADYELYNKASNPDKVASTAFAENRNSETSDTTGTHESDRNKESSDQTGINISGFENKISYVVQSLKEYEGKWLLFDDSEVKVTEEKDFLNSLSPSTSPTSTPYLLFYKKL
Sequence of USP1 (Recombinant Human His6-USP1/His6-UAF1 Complex Protein) (Q8TAF3 whole entry partner): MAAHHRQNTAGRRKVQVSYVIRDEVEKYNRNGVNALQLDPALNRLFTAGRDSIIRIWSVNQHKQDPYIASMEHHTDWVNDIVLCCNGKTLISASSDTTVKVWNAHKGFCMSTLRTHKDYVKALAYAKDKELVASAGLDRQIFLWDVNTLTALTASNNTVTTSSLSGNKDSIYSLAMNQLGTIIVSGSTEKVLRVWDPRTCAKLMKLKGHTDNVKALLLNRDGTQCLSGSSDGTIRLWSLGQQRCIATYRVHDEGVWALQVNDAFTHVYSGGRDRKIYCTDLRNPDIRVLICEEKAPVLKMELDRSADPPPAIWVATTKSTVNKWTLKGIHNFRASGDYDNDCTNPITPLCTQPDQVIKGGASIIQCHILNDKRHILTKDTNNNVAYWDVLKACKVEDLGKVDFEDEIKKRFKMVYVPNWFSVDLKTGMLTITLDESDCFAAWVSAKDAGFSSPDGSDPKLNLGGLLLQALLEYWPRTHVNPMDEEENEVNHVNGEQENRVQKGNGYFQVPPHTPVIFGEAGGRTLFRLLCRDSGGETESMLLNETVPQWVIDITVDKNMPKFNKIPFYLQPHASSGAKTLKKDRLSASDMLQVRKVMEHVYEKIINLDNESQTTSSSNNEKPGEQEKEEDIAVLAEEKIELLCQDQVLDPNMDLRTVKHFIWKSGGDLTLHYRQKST
Sequence of PXR (O75469 whole entry): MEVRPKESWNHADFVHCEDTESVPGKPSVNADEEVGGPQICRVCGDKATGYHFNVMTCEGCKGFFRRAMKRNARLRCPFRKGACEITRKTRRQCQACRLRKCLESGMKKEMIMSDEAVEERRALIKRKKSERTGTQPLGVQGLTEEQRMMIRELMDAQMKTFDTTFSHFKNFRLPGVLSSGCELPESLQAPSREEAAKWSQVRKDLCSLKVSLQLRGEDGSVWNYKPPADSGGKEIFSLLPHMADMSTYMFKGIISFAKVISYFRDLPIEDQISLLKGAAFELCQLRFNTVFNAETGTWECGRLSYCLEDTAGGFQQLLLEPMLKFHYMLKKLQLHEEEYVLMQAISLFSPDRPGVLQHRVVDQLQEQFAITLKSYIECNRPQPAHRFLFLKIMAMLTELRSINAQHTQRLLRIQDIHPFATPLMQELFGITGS
Procedure for MDA-MB-436 cells: Assay based on CellTiter-Glo luminescent cell viability assay system.
The assay kit (CellTiter-Glo® Luminescent Cell Viability Assay) was purchased from Promega, with Cat. No. of G7573, and was stored at −30° C. after subpackage. The kit is a homogeneous assay method for assaying the number of viable cells in a culture based on quantitative determination of ATP. The kit produces a luminescence signal proportional to the amount of ATP present, and the amount of ATP is directly proportional to the number of cells in the culture.
The cultured cells were trypsinized, collected and centrifuged, then resuspended at an adjusted concentration in a culture solution (DMEM+10% FBS), and cultured overnight on a 384-well plate (400 cells/20 μl/well) in a cell incubator with 5% CO2 at 37° C. An ECHO instrument was used to added the compound and pure DMSO onto each well of the 384-well plate. The total volume of the compound and DMSO is 100 nL, and the instrument obtains gradient diluted sample concentrations through different ratios. To each well, 30 μL of culture solution was added, and after mixing by centrifugal oscillation and re-centrifugation, the cells were cultured in a cell incubator for 7 days (one column of cells was subjected to CTG assay on the day of dosing). After day 7, 25 μL of CTG assay solution was added to each well, and after mixing by centrifugal oscillation and re-centrifugation, the cells were placed at room temperature away from light for 10 min. In terms of chemiluminescence signals, an Envision plate reader (PerkinElmer, emission wavelength: 400-700 nm) was used to measure a signal in each well. The chemiluminescence value [RLU]cpd on day 7 was obtained for the treatment group, the chemiluminescence value [RLU]cell on day 7 was obtained for the non-treatment group (given DMSO only), and the chemiluminescence value [RLU]background on day 0 was obtained for the parallel non-treatment group (given DMSO only) by CTG assay on day 0. […] In the following equation, x represents the concentration of the compound in a logarithmic form; and F(x) represents an effect value (inhibition rate of proliferation at the concentration): F(x)=(A+((B−A)/(1+((C/x)^D)))). A, B, C, and D are four parameters.

As a reminder, the pIC50 is −log10 of the IC50, conventionally taken in molar units. The GI50 is the concentration that inhibits growth by half. Lower therefore signals greater sensitivity of the cells. For the molecule `COc1ncnc(C2CC2)c1-c1ncc2c(n1)N(Cc1ccc(-c3nc(C(F)(F)F)cn3C)cc1)C(=O)C(C)(C)O2` [Compound 22, 2-(4-cyclopropyl-6-methoxypyrimidin-5-yl)-6,6-dimethyl-8-(4-(1-methyl-4-(trifluoromethyl)-1H-imidazol-2-yl)benzyl)-6H-pyrimido[5,4-b][1,4]oxazin-7(8H)-one], the pIC50 in data set [1] was 7.84. The hepatocyte CLint at 1 μM worked out at 6.4 µL/min/1e6 cells in data set [2] and 4.85 µL/min/1e6 cells in data set [3]. It took 19.9 nM to inhibit growth in the data set on MDA-MB-436 cells by half (GI50).
As usually defined, the solubility is the dissolved amount per volume that the medium holds. `COc1ncnc(C2CC2)c1-c1ncc2c(n1)N(Cc1ccc(-c3nc(C(F)(F)F)cn3C)cc1)C(C)C(=O)N2C` (stereo not shown) [Compound 26, 2-(4-cyclopropyl-6-methoxypyrimidin-5-yl)-5,7-dimethyl-8-(4-(1-methyl-4-(trifluoromethyl)-1H-imidazol-2-yl)benzyl)-7,8-dihydropteridin-6(5H)-one]: the negative logarithm of the IC50 (pIC50) in data set [1] is 7.38. In data set [2], the hepatocyte CLint at 1 μM is 4.2 µL/min/1e6 cells. Besides, the solubility at 2 h in data set [4] was 115 µM (≈ 64.9 µg/mL). The same molecule yielded a GI50 in the data set on MDA-MB-436 cells of 41.1 nM.
The matching figures for `COc1ncnc(C2CC2)c1-c1ncc2c(n1)N(Cc1ccc(-c3nc(C(F)(F)F)cn3C(F)F)cc1)CC(=O)N2C` [Compound 28, 2(4-cyclopropyl-6-methoxypyrimidin-5-yl)-8-((4-(1-(difluoromethyl)-4-(trifluoromethyl)-1H-imidazol-2-yl)phenyl)methyl)-5-methyl-7,8-dihydropteridin-6(5H)-one]: 7.47, 6.3 µL/min/1e6 cells, 73 µM (≈ 42.8 µg/mL) and 51.1 nM.
`CCN1C(=O)CN(Cc2ccc(-c3nc(C(F)(F)F)cn3C)cc2)c2nc(-c3c(OC)ncnc3C3CC3)ncc21` [Compound 33, 2-(4-cyclopropyl-6-methoxypyrimidin-5-yl)-5-ethyl-8-(4-(1-methyl-4-(trifluoromethyl)-1H-imidazol-2-yl)benzyl)-7,8-dihydropteridin-6(5H)-one]: the pIC50 in data set [1] was 7.50. For the same molecule, in data set [2], the hepatocyte CLint at 1 μM is 4.3 µL/min/1e6 cells. For the same molecule, the GI50 in the data set on MDA-MB-436 cells was 53.8 nM.
Regarding `COc1ncnc(C2CC2)c1-c1ncc2c(n1)N(Cc1ccc(-n3nc(C(F)(F)F)cc3C)cc1)CC(=O)N2C` [Compound 43, 2-(4-cyclopropyl-6-methoxypyrimidin-5-yl)-5-methyl-8-(4-(5-methyl-3-(trifluoromethyl)-1H-pyrazol-1-yl)benzyl)-7,8-dihydropteridin-6(5H)-one], the pIC50 in data set [1] is 7.65. In addition, the “PXR activation (% Positive control)” value at PXR is on record as 3.2 % Positive control. For the same molecule, growth in the data set with MDA-MB-436 cells was halved (GI50) at 32.6 nM.
Turning to `COc1ncnc(C2CC2)c1-c1ncc2c(n1)N(Cc1ccc3c(c1)CCCn1cc(C(F)(F)F)nc1-3)CC(=O)N2C` [Compound 45, 2-(4-cyclopropyl-6-methoxypyrimidin-5-yl)-5-methyl-8-((2-(trifluoromethyl)-6,7-dihydro-5H-benzo[c]imidazo[1,2-a]azepin-9-yl)methyl)-7,8-dihydropteridin-6(5H)-one], the pIC50 in data set [1] is 7.70. Moreover, the hepatocyte CLint at 1 μM in data set [3] was found to be 4.26 µL/min/1e6 cells. In addition, in data set [4], the solubility at 2 h is 88 µM (≈ 50.7 µg/mL). This molecule returned a 50% growth inhibitory concentration (GI50) in the data set on MDA-MB-436 cells of 53.2 nM.
Consider `COc1ncnc(C2CC2)c1-c1ncc2c(n1)N(Cc1ccc(-c3nc(C(F)(F)F)cn3C)cc1)C(=O)OC21CC1` [Compound 52, 7′-(4-cyclopropyl-6-methoxypyrimidin-5-yl)-1′-(4-(1-methyl-4-(trifluoromethyl)-1H-imidazol-2-yl)benzyl)spiro[cyclopropane-1,4′-pyrimido[4,5-d][1,3]oxazine]-2′(1′H)-one], for which, in data set [1], the pIC50 was 7.63. The “PXR activation (% Positive control)” value at PXR was found to be 20.9 % Positive control. The molecule also displayed a GI50 with MDA-MB-436 cells of 59.6 nM.

The values above are taken from patent publication US20240226107A1, “UBIQUITIN-SPECIFIC PROTEASE 1 (USP1) INHIBITOR” (SIMCERE ZAIMING PHARMACEUTICAL CO., LTD., priority 2021, published 2024).
